In ChEMBL document CHEMBL2202996, “Synthesis, evaluation, and radiolabeling of new potent positive allosteric modulators of the metabotropic glutamate receptor 2 as potential tracers for positron emission tomography imaging” (J Med Chem, 2012):

Assays:
Rattus norvegicus = assay: Biodistribution in Wistar rat urinary system at 22 Mbq, iv measured at 60 mins post administration by gamma counting; assay type: ADME, organism-based, Urine; conditions: in vivo, 1 h
Liver = assay: Biodistribution in Wistar rat liver at 22 Mbq, iv measured at 60 mins post administration by gamma counting; assay type: ADME, organism-based; conditions: in vivo, 1 h
Intestine = assay: Biodistribution in Wistar rat intestine at 22 Mbq, iv measured at 60 mins post administration by gamma counting; assay type: ADME, organism-based; conditions: in vivo, 1 h
Brain [1] = assay: Ratio of SUV in total brain in iv dosed Wistar at 2 mins post administration by gamma counting to SUV in total brain in iv dosed Wistar at 30 mins post administration by gamma counting; assay type: ADME, organism-based; conditions: rat, in vivo
Cerebellum [2] = assay: Ratio of SUV in cerebellum in iv dosed Wistar at 2 mins post administration by gamma counting to SUV in cerebellum in iv dosed Wistar at 30 mins post administration by gamma counting; assay type: ADME, organism-based; conditions: rat, in vivo
Cerebrum [3] = assay: Ratio of SUV in cerebrum in iv dosed Wistar at 2 mins post administration by gamma counting to SUV in cerebrum in iv dosed Wistar at 30 mins post administration by gamma counting; assay type: ADME, organism-based; conditions: rat, in vivo
Cortex = assay: Ratio of SUV in cortex in iv dosed Wistar at 2 mins post administration by gamma counting to SUV in cortex in iv dosed Wistar at 30 mins post administration by gamma counting; assay type: ADME, organism-based; conditions: rat, in vivo
Hippocampus = assay: Ratio of SUV in hippocampus in iv dosed Wistar at 2 mins post administration by gamma counting to SUV in hippocampus in iv dosed Wistar at 30 mins post administration by gamma counting; assay type: ADME, organism-based; conditions: rat, in vivo
Striatum = assay: Ratio of SUV in striatum in iv dosed Wistar at 2 mins post administration by gamma counting to SUV in striatum in iv dosed Wistar at 30 mins post administration by gamma counting; assay type: ADME, organism-based; conditions: rat, in vivo
Cerebellum [4] = assay: Biodistribution in Wistar rat cerebellum at 22 Mbq, iv measured at 2 mins post administration by gamma counting; assay type: ADME, organism-based; conditions: in vivo
Cerebrum [5] = assay: Biodistribution in Wistar rat cerebrum at 22 Mbq, iv measured at 2 mins post administration by gamma counting; assay type: ADME, organism-based; conditions: in vivo
Brain [6] = assay: Biodistribution in Wistar rat brain at 22 Mbq, iv measured at 2 mins post administration by gamma counting; assay type: ADME, organism-based; conditions: in vivo
[7] = molecular target: T1, Metabotropic glutamate receptor 2 (Homo sapiens, UniProt Q14416); assay: Agonist activity at human mGLuR2 expressed in CHO cell membrane assessed as […] after 30 mins by scintillation counting; assay type: functional, cell membranes
Target sequence in this assay (Q14416 whole entry): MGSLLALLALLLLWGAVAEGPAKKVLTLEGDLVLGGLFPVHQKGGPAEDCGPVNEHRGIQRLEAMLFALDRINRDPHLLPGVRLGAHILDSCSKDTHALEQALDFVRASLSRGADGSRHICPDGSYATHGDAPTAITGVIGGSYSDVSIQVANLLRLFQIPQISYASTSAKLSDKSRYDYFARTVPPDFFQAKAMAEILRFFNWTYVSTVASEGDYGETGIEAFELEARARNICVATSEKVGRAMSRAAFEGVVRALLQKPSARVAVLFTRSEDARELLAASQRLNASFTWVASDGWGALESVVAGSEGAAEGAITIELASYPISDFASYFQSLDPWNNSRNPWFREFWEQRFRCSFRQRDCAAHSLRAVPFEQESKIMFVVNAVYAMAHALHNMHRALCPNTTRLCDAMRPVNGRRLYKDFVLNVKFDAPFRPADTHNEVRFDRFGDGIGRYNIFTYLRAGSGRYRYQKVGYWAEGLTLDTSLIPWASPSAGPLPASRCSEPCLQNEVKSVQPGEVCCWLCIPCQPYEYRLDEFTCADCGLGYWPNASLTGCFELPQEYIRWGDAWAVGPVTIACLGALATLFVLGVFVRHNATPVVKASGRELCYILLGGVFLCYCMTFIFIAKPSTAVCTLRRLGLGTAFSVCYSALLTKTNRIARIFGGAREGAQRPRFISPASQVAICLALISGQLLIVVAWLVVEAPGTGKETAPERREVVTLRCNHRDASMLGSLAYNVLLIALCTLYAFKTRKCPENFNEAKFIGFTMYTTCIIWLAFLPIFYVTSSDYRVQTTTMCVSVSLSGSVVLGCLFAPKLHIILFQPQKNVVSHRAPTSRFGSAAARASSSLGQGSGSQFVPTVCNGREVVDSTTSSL

[8] = Fraction unbound in human plasma; assay type: ADME, cell-free
[9] = Fraction unbound in rat plasma; assay type: ADME, cell-free
Liver microsomes [10] = assay: Drug metabolism in rat liver microsomes assessed as M+O oxidative metabolite; assay type: ADME, Microsome
Liver microsomes [11] = assay: Drug metabolism in human liver microsomes assessed as M+O oxidative metabolite; assay type: ADME, Microsome
Liver microsomes [12] = assay: Drug metabolism in rat liver microsomes assessed as O-methylated compound derivative; assay type: ADME, Microsome
Liver microsomes [13] = assay: Drug metabolism in human liver microsomes assessed as O-methylated compound derivative; assay type: ADME, Microsome
[14] = molecular target: T1, Metabotropic glutamate receptor 2; assay: Agonist activity at human mGLuR2 expressed in CHO cell membrane assessed as […] after 30 mins by scintillation counting relative to control; assay type: functional, cell membranes
Target sequence in this assay (Q14416 19-872 limits assumed): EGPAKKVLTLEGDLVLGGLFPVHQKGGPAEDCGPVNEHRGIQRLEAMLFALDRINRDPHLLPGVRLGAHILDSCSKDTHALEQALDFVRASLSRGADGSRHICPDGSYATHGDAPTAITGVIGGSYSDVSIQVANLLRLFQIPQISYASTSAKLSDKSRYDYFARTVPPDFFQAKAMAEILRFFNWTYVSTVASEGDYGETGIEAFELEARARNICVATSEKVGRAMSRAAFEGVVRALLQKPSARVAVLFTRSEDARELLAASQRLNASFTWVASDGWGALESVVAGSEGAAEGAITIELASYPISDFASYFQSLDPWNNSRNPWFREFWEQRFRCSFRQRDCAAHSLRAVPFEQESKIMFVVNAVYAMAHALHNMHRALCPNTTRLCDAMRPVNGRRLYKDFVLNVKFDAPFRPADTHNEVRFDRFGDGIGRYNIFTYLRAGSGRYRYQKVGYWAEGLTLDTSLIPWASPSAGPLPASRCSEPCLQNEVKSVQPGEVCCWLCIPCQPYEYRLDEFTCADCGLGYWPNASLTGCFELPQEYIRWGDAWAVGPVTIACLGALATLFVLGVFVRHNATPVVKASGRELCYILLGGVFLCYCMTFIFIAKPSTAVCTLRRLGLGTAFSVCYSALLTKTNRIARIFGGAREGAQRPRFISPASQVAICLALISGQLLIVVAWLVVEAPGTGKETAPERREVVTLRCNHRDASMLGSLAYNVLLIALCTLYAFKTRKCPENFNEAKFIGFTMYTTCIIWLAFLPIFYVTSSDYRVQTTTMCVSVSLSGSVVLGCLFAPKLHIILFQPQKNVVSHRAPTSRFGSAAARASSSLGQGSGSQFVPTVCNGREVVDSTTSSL

CHO [15] = assay: Selectivity ratio for rat mGluR6 to human mGluR2 expressed in CHO cell membranes; assay type: cell-based
CHO [16] = assay: Selectivity ratio for human mGluR4 to human mGluR2 expressed in CHO cell membranes; assay type: cell-based
HEK293 [17] = assay: Selectivity ratio for human mGluR8 expressed in HEK293 cells to human mGluR2 expressed in CHO cell membranes; assay type: cell-based
HEK293 [18] = assay: Selectivity ratio for human mGluR7 expressed in HEK293 cells to human mGluR2 expressed in CHO cell membranes; assay type: cell-based
HEK293 [19] = assay: Selectivity ratio for human mGluR5 expressed in HEK293 cells to human mGluR2 expressed in CHO cell membranes; assay type: cell-based
HEK293 [20] = assay: Selectivity ratio for human mGluR3 expressed in HEK293 cells to human mGluR2 expressed in CHO cell membranes; assay type: cell-based
HEK293 [21] = assay: Selectivity ratio for human mGluR1 expressed in HEK293 cells to human mGluR2 expressed in CHO cell membranes; assay type: cell-based
[22] = molecular target: T1, Metabotropic glutamate receptor 2; assay: Displacement of [3H]JNJ-40068782 from human mGLuR2 expressed in CHO cell membrane after 60 mins by liquid scintillation counting; assay type: cell membranes
Target sequence in this assay (Q14416 whole entry): as the sequence (Q14416 whole entry) above

fraction unbound [8] | fraction unbound [9] | Drug metabolism (Liver microsomes [10]) | Drug metabolism (Liver microsomes [11]) | Drug metabolism (Liver microsomes [12]) | Drug metabolism (Liver microsomes [13]) | Emax [14] [%] | Structure (SMILES) | Selectivity ratio (CHO [15]) | Selectivity ratio (CHO [16]) | Selectivity ratio (HEK293 [17]) | Selectivity ratio (HEK293 [18]) | Selectivity ratio (HEK293 [19]) | Selectivity ratio (HEK293 [20]) | Selectivity ratio (HEK293 [21]) | further results
< 0.01 | < 0.01 | Active | Active | Active | Active | 345 | COc1ccccc1C1CCN(c2ccn3c(CC4CC4)nnc3c2Cl)CC1 | – | – | – | – | – | – | – | –
< 0.01 | < 0.01 | Active | Active | Active | Active | 256 | COc1cc(F)cc(F)c1C1CCN(c2ccn3c(CC4CC4)nnc3c2Cl)CC1 | > 350 | > 350 | > 350 | > 350 | > 350 | > 350 | > 350 | IC50 [22]: 5.6 nM
< 0.01 | < 0.01 | Active | Active | Active | Active | 304 | COc1cccc(F)c1C1CCN(c2ccn3c(CC4CC4)nnc3c2Cl)CC1 | > 350 | > 350 | > 350 | > 350 | > 350 | > 350 | > 350 | IC50 [22]: 11.2 nM

Further lines, the compound ahead of its results:

Structure (SMILES) | fraction unbound [8] | fraction unbound [9] | Drug metabolism (Liver microsomes [10]) | Drug metabolism (Liver microsomes [11]) | Drug metabolism (Liver microsomes [12]) | Drug metabolism (Liver microsomes [13]) | Emax [14] [%] | Selectivity ratio (CHO [15]) | Selectivity ratio (CHO [16]) | Selectivity ratio (HEK293 [17]) | Selectivity ratio (HEK293 [18]) | Selectivity ratio (HEK293 [19]) | Selectivity ratio (HEK293 [20]) | Selectivity ratio (HEK293 [21]) | further results
[11CH3]Oc1cccc(F)c1C1CCN(c2ccn3c(CC4CC4)nnc3c2Cl)CC1 | – | – | – | – | – | – | – | – | – | – | – | – | – | – | Drug uptake (Rattus norvegicus): Active; Drug uptake (Liver): Active; Drug uptake (Intestine): Active; Ratio (Brain [1]): 0.72; Ratio (Cerebellum [2]): 0.71; Ratio (Cerebrum [3]): 0.6; Ratio (Cortex): 0.71; Ratio (Hippocampus): 0.63; Ratio (Striatum): 0.59; Drug uptake (Cerebellum [4]): 0.17 %ID; Drug uptake (Cerebrum [5]): 0.45 %ID; Drug uptake (Brain [6]): 0.65 %ID
N#Cc1c(N2CCC(c3ccccc3)CC2)ccn2c(CC(F)(F)F)nnc12 | – | – | – | – | – | – | – | – | – | – | – | – | – | – | EC50 ([7]; read-out: pEC50 (converted)): 56.2 nM
COc1c(F)cccc1C1CCN(c2ccn3c(CC4CC4)nnc3c2C(F)(F)F)CC1 | < 0.01 | < 0.01 | Active | Active | Active | Active | 528 | – | – | – | – | – | – | – | EC50 ([7]; read-out: EC50): 11 nM
COc1ccc(F)cc1C1CCN(c2ccn3c(CC(F)(F)F)nnc3c2Cl)CC1 | < 0.01 | < 0.01 | Active | Active | Active | Active | 340 | – | – | – | – | – | – | – | –
COc1c(C2CCN(c3ccn4c(CC5CC5)nnc4c3Cl)CC2)ccc(F)c1F | < 0.01 | < 0.01 | Active | Active | Active | Active | 342 | – | – | – | – | – | – | – | EC50 ([7]; read-out: EC50): 26 nM
COc1c(F)ccc(F)c1C1CCN(c2ccn3c(CC4CC4)nnc3c2C(F)(F)F)CC1 | < 0.01 | < 0.01 | Active | Active | Active | Active | 421 | > 350 | > 350 | > 350 | > 350 | > 350 | > 350 | > 350 | –
